{"source": "patent US20260083686A1", "about": "“METHODS FOR SUPPRESSING ACCUMULATION OF REFLUX-INDUCED PROTEIN ADDUCTS” (Vanderbilt University, priority 2018, published 2026)", "key": {"[1]": {"system": "p53 isoLG protein adducts in EPC-2 cells", "experiment": "p53 immunoprecipitation and Western blot with D11 antibody for p53 isoLG adducts in BA/A-treated EPC-2 cells", "format": "cell-based, human", "settings": "2-HOBA 50 μM, p53 (DO-1) immunoprecipitation, D11 Western blot", "method": "To directly analyze p53 protein adducts, cellular lysates of EPC-2 cells, which were treated with BA/A in the presence or absence of 2-HOBA, were immunoprecipitated with p53 antibody. The immunoprecipitated p53 protein was then analyzed for the isoLG adducts by Western blotting with isoLG-specific D11 antibody.\nTreatment With Acidic Bile Salts (BA/A) and 2-HOBA: Cells were treated in acidic DMEM media (pH 4.0), containing bile salts cocktail at final concentration of 100 μM. The bile salt cocktail was prepared with a combination of glycocholic, taurocholic, glycodeoxycholic, glycochenodeoxycholic and deoxycholic sodium salts (all reagents were from Sigma-Aldrich, St. Louis, MO) at a concentration of 20 μM each. TE-7 and HET-1A cells were treated for 30 minutes, whereas, EPC-2 cells were treated for 15 minutes and then the media was replaced. […]\nFor immunoprecipitation, cells were harvested by centrifugation at 200 g for 5 minutes and resuspended in PBS with protease inhibitor cocktail. […] The immunoprecipitated samples were analyzed by Western blotting with D11 antibody and anti-E tag HRP-conjugated antibodies from Abcam. The analyzed membranes were stripped in Restore™ Western Blot Stripping Buffer (ThermoFisher Scientific, Waltham, MA) at +50° C. for 1 hour, washed, and blocked with 5% milk and analyzed by Western blotting with p53 (DO1) antibody."}, "[2]": {"system": "isoLG protein adducts (LG-lysine lactam) in TE-7 cells", "experiment": "LG-lysine lactam adducts by LC/ESI/MS/MS in TE-7 cells treated with acidic bile salts (BA/A)", "format": "cell-based, human", "settings": "BA/A 100 μM pH 4.0 for 30 min, 2-HOBA 50 μM", "excerpt": "Formation of LG-lysine adducts was further verified by quantification of the LG-lysyl lactam adducts using liquid chromatography-electrospray ionization-tandem mass spectrometry (LC/ESI/MS/MS) in TE-7 cells treated with BA/A. Our studies confirmed that levels of LG-lysine lactam adduct are higher in BA/A treated than control samples. Our quantification analyses were based on specific transitions from the molecular ion at m/z=479.2 to the specific fragment at m/z=332.1. The elution of the two fragment ions found in BA/A treated samples was similar to the [13C6]lysine-lactam internal standard (FIG. 2A). As an additional control, TE-7 cells were treated with BA/A as above but in the presence of known isoLG scavenger 2-hydroxybenzylamine (2HOBA) and analyzed by mass spectrometry.\nCell Lines: Human non-tumorous esophageal cell line (HET-1A) and human esophageal carcinoma cell line (TE-7) were purchased from ATCC. The morphology, karyotyping and PCR based techniques were used by ATCC to confirm the cell line identity. […]\nDetection of Levuglandinyl-Lysine Lactam Using Liquid Chromatography/Electrospray Ionization/Tandem Mass Spectrometry (LC/ESI/MS/MS): Levuglandinyl-lysine lactam was analyzed in TE-7 cells treated with acidic bile salts and control untreated cells using LC/ESI/MS/MS. […]"}, "[3]": {"system": "isoLG protein adducts in esophageal tissues", "experiment": "Surgical (esophagojejunostomy) reflux model in mice, isoLG adducts by immunohistochemistry with D11 antibody", "format": "in vivo", "settings": "2-HOBA 1 mg/ml in drinking water for 10 days; for accumulation of isoLG adducts in esophageal tissues in vivo: mice with surgically induced reflux", "excerpt": "To investigate the formation of isoLG protein adducts in the esophagus, The present inventors used a surgical model of esophageal reflux injury. To generate animals with reflux, a section of the mouse jejunum was transected and then anastomosed to the esophagus resulting in an increased reflux. […] Using immunohistochemistry with D11 antibody, the present inventors compared levels of isoLG protein adducts in esophageal epithelia of animals with reflux induced by surgery and control animals with sham surgery. Levels of isoLG adducts were also analyzed in surgical animals treated with isoLG scavenger 2-HOBA for 10 days. The present inventors found significant accumulation of isoLG protein adducts in esophageal animal tissues affected by reflux.\nInduction of Reflux in Mice: Reflux was induced by surgical procedure, esophagojejunal anastomosis, as previously described. Esophagojejunostomy was performed on fourteen 8-week-old 129SV mice according to the protocol approved by the Vanderbilt University Animal Care and Use Committee. Animals were then be allowed a 2-weeks recovery period on regular rodent chow ad libitum prior to were randomly assigned into two groups. First group of 7 mice with surgery was treated with 2-HOBA (1 mg/ml) delivered in drinking water for 10 days, while a control group (7 surgical animals) only received water. Additional control group of 5 animals with sham surgery received water. The esophagus and gastroesophageal junction areas from the test and control groups of animals were harvested, paraffin-embedded and analyzed by immunohistochemistry with D11 antibody. Indices of D11 positivity were scored and compared in test and control groups of animals."}}, "note": "“Also recorded” adds a separate entry of the source."}
{"compound": "NCc1ccccc1O", "note": "[2-HOBA, 2-hydroxybenzylamine]", "values": [{"measurement": "formation of p53 isoLG protein adducts", "setting": "[1]", "result": "significantly inhibited formation of p53 protein adducts; also recorded: inhibited the formation of p53 protein adducts"}, {"measurement": "formation of isoLG protein adducts (LG-lysine lactam adduct levels)", "setting": "[2]", "result": "higher in BA/A-treated samples compared to control and treated with isoLG scavenger 2-HOBA"}, {"measurement": "formation of isoLG protein adducts (LG-lysine lactam adduct levels)", "setting": "[2]; listed as 2HOBA", "result": "inhibited formation of isoLG protein adducts"}, {"measurement": "accumulation of isoLG adducts in esophageal tissues in vivo", "setting": "[3]", "result": "efficiently decreased isoLG protein adducts in mice in vivo; also recorded: prevents accumulation of isoLG adducts in vivo; also recorded: inhibited accumulation of isoLG adducts in vivo"}, {"measurement": "accumulation of isoLG adducts in esophageal tissues in vivo", "setting": "[3]; listed as 2HOBA", "result": "efficiently suppresses accumulation of reflux-induced protein adducts in vitro and in vivo"}, {"measurement": "isoLG adducts: surgical animals treated with 2-HOBA versus sham control animals", "setting": "[3]; mice", "result": "did not find significant difference"}]}
